Reference: patent publication US9890185B2, “Urea derivatives useful as kinase inhibitors” (Respivert Limited, priority 2013, dated 2018)
pIC50: −log10 of the molar value.

How the values were obtained:
[1] = target: c-Src (Homo sapiens (Human), UniProt P12931); assay: c-Src enzyme inhibition (FRET, Z-LYTE); assay type: biochemical
Method in brief: (§1)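 c-Src (3000 ng/mL) or Syk (2000 ng/mL) stock was preincubated with compound (4–0.004 μg/mL stocks) for 2 hr at RT. FRET peptide (8 μM stock) and ATP (800 μM c-Src, 60 μM Syk, as added) were then added for 1 hr, followed by 1 hr protease development. The coumarin/fluorescein emission ratio gave % inhibition and IC50.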

[2] = target: GSK 3α (Homo sapiens (Human), UniProt P49840); assay: GSK 3α enzyme inhibition (FRET, Z-LYTE, Method 2); assay type: biochemical; conditions: read-out: IC50 Values for Enzyme Inhibition, GSK3α
Method in brief: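 Phosphorylation of a dual-labelled synthetic peptide by human GSK3α is read as a coumarin/fluorescein ratio after protease development. Compound stocks run 4 to 0.004 μg/mL, and ATP stock is 40 μM.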

[3] = system: PBMCs; assay: Cell mitosis assay in PBMCs (assay g); assay type: cell-based; conditions: Homo sapiens, PBMC, test compound 5 μg/mL
Experimental: Peripheral blood mononucleocytes (PBMCs) from healthy subjects are separated from whole blood (Quintiles, London, UK) using a density gradient (Histopaque®-1077, Sigma-Aldrich, Poole, UK). The PBMCs (3 million cells per sample) are subsequently treated with 2% PHA (phytohaemagglutinin, Sigma-Aldrich, Poole, UK) for 48 hr, followed by a 20 hr exposure to varying concentrations of test compounds. At 2 hr before collection, PBMCs are treated with demecolcine (0.1 μg/mL; Invitrogen, Paisley, UK) to arrest cells in metaphase. To observe mitotic cells, PBMCs are permeabilised and fixed by adding Intraprep (50 μL; Beckman Coulter, France), and stained with anti-phospho-histone 3 (0.26 ng/L; #9701; Cell Signalling, Danvers, Mass.) and propidium iodide (1 mg/mL; Sigma-Aldrich, Poole, UK) as previously described (Muehlbauer P. A. and Schuler M. J., Mutation Research, 2003, 537:117-130). Fluorescence is observed using an ATTUNE flow cytometer (Invitrogen, Paisley, UK), gating for lymphocytes. The percentage inhibition of mitosis is calculated for each treatment relative to vehicle (0.5% DMSO) treatment.

[4] = system: PBMCs; assay: IFN gamma release in CD3/CD28 stimulated PBMC cells (assay c); assay type: cell-based; conditions: Homo sapiens, read-out: IC50 Values for Inhibition of Cytokine Release, PBMCs IFNγ
Experimental: (§2) PBMCs from healthy subjects are separated from whole blood using a density gradient (Lymphoprep, Axis-Shield Healthcare). Cells are added to a 96 well plate pre-coated with a mixture of CD3/CD28 monoclonal antibodies (0.3 μg/mL eBioscience and 3 μg/mL BD Pharmingen respectively). Compound at the desired concentration is then added to the wells and the plate left for 3 days under normal tissue culture conditions. Supernatants are harvested and IL-2 and IFN gamma release determined by Sandwich ELISA (Duo-set, R&D System). The IC50 is determined from the dose response curve.

[5] = system: PBMCs; assay: IL-2 release in CD3/CD28 stimulated PBMC cells (assay c); assay type: cell-based; conditions: Homo sapiens, read-out: IC50 Values for Inhibition of Cytokine Release, PBMCs IL-2
Experimental: as §2

[6] = system: PBMCs; assay: LPS-induced IL-8 release in PBMC cells (assay b); assay type: cell-based, human; conditions: Homo sapiens, PBMC; LPS-stimulated PBMCs; read-out: IC50 Values for Inhibition of Cytokine Release, PBMCs IL-8
Method in brief: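 Human PBMCs from healthy donors, isolated by density gradient, were pretreated with compound for 2 h and then stimulated with 1 ng/mL LPS (E. coli 0111:B4) for 24 h at 37° C, 5% CO2. Supernatant IL-8 and TNFα were measured by sandwich ELISA, and IC50 was taken from the dose-response curve.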

[7] = system: d-U937 cells; assay: Accumulation of β catenin in d-U937 cells (assay m); assay type: cell-based, human; conditions: percentage relative to Reference Compound at 1 μg/mL
Method in brief: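 PMA-differentiated (100 ng/mL, 48–72 hr) human U937 macrophage-type cells treated with test compound or vehicle for 18 hr. β-catenin measured by in-cell ELISA (anti-β-catenin, HRP secondary, TMB, OD450–655). Signal corrected for cell number by dividing by crystal violet OD595.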

[8] = target: Syk (Homo sapiens (Human), UniProt P43405); assay: Syk enzyme inhibition (FRET, Z-LYTE); assay type: biochemical
Method in brief: as §1

[9] = target: p38 MAPKα isoform (MAPK14) (Homo sapiens (Human), UniProt Q16539); assay: p38 MAPKα enzyme inhibition (FRET, Z-LYTE, Method 2); assay type: biochemical
Method in brief: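 Z-LYTE FRET: p38 MAPKα (80 ng/mL for Method 1, 200 ng/mL for Method 2, pre-dilution) preincubated 2 hr RT with compound (4–0.004 μg/mL solutions), activity read via MAPKAP-K2 phosphorylation after 1 hr RT and 1 hr protease development. Coumarin/fluorescein ratio gives phosphorylation; % inhibition versus uninhibited control, IC50 from concentration-response curve.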

c-Src, sequence (P12931 whole entry, looked up): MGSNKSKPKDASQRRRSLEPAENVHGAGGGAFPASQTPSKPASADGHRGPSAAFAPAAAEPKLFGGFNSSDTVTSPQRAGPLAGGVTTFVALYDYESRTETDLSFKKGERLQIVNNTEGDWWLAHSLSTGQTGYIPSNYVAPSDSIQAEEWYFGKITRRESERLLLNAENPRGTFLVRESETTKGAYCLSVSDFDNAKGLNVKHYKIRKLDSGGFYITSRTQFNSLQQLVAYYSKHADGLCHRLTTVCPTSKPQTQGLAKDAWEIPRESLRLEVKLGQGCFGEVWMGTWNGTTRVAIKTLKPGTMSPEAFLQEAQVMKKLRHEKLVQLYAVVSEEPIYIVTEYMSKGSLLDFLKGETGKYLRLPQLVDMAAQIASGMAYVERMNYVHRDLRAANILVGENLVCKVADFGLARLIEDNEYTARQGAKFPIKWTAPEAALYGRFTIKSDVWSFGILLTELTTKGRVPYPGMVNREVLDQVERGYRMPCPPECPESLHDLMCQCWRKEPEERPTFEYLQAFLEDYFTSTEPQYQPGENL
p38 MAPKα isoform (MAPK14), sequence (Q16539 whole entry, canonical isoform): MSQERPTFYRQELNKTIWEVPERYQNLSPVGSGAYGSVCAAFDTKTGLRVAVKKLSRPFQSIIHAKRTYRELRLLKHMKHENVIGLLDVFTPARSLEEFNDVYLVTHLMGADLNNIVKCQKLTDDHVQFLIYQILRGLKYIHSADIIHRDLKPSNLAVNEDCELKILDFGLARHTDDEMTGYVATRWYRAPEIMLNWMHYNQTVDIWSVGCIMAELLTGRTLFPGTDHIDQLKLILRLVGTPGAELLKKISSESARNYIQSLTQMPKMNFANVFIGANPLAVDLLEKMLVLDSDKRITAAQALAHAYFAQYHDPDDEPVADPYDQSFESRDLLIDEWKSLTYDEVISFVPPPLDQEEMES
GSK 3α, sequence (P49840 whole entry): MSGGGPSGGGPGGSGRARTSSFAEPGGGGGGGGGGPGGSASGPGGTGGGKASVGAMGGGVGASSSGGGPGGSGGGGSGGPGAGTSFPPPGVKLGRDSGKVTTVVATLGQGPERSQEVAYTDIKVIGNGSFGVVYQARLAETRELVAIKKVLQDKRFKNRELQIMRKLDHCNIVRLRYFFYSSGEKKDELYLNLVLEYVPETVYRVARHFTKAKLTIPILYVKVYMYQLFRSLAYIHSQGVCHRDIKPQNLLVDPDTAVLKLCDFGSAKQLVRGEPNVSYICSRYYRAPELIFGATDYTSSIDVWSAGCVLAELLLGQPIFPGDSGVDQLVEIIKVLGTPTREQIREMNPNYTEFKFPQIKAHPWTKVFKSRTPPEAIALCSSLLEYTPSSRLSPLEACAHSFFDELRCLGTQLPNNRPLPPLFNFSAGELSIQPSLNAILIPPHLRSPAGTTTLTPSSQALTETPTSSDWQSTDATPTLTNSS

SMILES | pIC50 [1] | pIC50 [2] | pIC50 [8] | pIC50 [9] | inhibition at 5 µg/mL [3] [%] | pIC50 [4] | pIC50 [5] | pIC50 [6] | % β-catenin induction ([7]; test compound 1 μg/mL) [%] | % β-catenin induction ([7]; test compound 5 μg/mL) [%] | % β-catenin induction ([7]; test compound 10 μg/mL) [%]
COc1c(NC(=O)Nc2ccc(Oc3ccnc(Nc4cnccn4)c3)c3ccccc23)cc(C(C)(C)C)cc1P(C)(C)=O [15(aa), 1-(5-(tert-butyl)-3-(dimethylphosphoryl)-2-methoxyphenyl)-3-(4-((2-(pyrazin-2-ylamino)pyridin-4-yl)oxy)naphthalen-1-yl)urea] | 7.34 | 6.72 | 6.94 |  | 98.1 | 7.83 | 7.23 | 9.10 | 50.5 | 58.5 | 49.5
COc1c(NC(=O)Nc2ccc(Oc3ccnc(Nc4cc(C#N)cc(OCCCN5CCOCC5)c4)c3)c3ccccc23)cc(C(C)(C)C)cc1[S+](C)[O-] (stereo not shown) [79(e), 1-(5-tert-Butyl-2-methoxy-3-methylsulfinyl-phenyl)-3-[4-[[2-[3-cyano-5-(3-morpholinopropoxy)anilino]-4-pyridyl]oxy]-1-naphthyl]urea] | 7.09 |  | < 5.92 | 6.57 | 72.4 | 8.16 | 7.28 | 8.39 |  |  | 
COc1cc(Nc2nccc(Oc3ccc(NC(=O)Nc4cc(C(C)(C)C)cc(P(C)(C)=O)c4OC)c4ccccc34)n2)cc(OC)c1 [Example 18, 1-(5-(tert-Butyl)-3-(dimethylphosphoryl)-2-methoxyphenyl)-3-(4-((2-((3,5-dimethoxyphenyl)-amino)pyrimidin-4-yl)oxy)naphthalen-1-yl)urea] | 7.82 | 5.88 | 7.16 | 6.66 |  | 8.09 | 7.71 | 8.68 | 6.5 | 35.5 | 39.0
COc1cc(Nc2cc(Oc3ccc(NC(=O)Nc4cc(C(C)(C)C)cc(C(=O)NCCN5CCOCC5)c4OC)c4ccccc34)ccn2)cc(C(N)=O)c1 [Example 61, 5-(tert-Butyl)-3-(3-(4-((2-((3-carbamoyl-5-methoxyphenyl)amino)pyridin-4-yl)oxy)naphthalen-1-yl)ureido)-2-methoxy-N-(2-morpholinoethyl)benzamide] |  | 5.79 |  | 6.68 | 68.7 | 8.80 | 8.11 | 8.72 |  |  | 
COc1cc(Nc2cc(Oc3ccc(NC(=O)Nc4cc(C(C)(C)C)cc(CC(N)=O)c4OC)c4ccccc34)ccn2)ccc1C(=O)NCCN1CCOCC1 [Example 70, 4-((4-((4-(3-(3-(2-Amino-2-oxoethyl)-5-(tert-butyl)-2-methoxyphenyl)ureido)naphthalen-1-yl)oxy)pyridin-2-yl)amino)-2-methoxy-N-(2-morpholinoethyl)benzamide] |  | 5.64 |  | 7.55 | 62.8 | 7.95 | 7.01 | 8.64 |  |  | 

The remaining compounds from weak to strong by pIC50 [2], led by results:

pIC50 [1] | pIC50 [2] | pIC50 [8] | pIC50 [9] | SMILES | inhibition at 5 µg/mL [3] [%] | pIC50 [4] | pIC50 [5] | pIC50 [6] | % β-catenin induction ([7]; test compound 1 μg/mL) [%] | % β-catenin induction ([7]; test compound 5 μg/mL) [%] | % β-catenin induction ([7]; test compound 10 μg/mL) [%]
7.21 | 5.32 | < 5.92 | 7.30 | COCCOCCOCCNC(=O)c1cc(Nc2cc(Oc3ccc(NC(=O)Nc4cc(C(C)(C)C)cc(S(C)(=O)=O)c4OC)c4ccccc34)ccn2)cc(OC)c1 [38(ab), 3-((4-((4-(3-(5-(tert-Butyl)-2-methoxy-3-(methylsulfonyl)phenyl)ureido)naphthalen-1-yl)oxy)pyridin-2-yl)amino)-5-methoxy-N-(2-(2-(2-methoxyethoxy)ethoxy)ethyl)benzamide] | 30.7 | 7.96 | 6.50 | 8.85 |  |  | 
 | 5.49 |  |  | COc1cc(Nc2cc(Oc3ccc(NC(=O)Nc4cc(C(C)(C)C)cc(P(C)(C)=O)c4OC)c4ccccc34)ccn2)ccc1C(=O)NCCN1CCOCC1 [38(ao), 4-((4-((4-(3-(5-(tert-Butyl)-3-(dimethylphosphoryl)-2-methoxyphenyl)ureido)naphthalen-1-yl)oxy)pyridin-2-yl)amino)-2-methoxy-N-(2-morpholinoethyl)benzamide] | 78 | 7.80 | 6.66 | 8.57 |  |  | 
7.40 | 5.49 | 6.10 |  | COc1c(CNC(C)=O)cc(C(C)(C)C)cc1NC(=O)Nc1ccc(Oc2ccnc(Nc3cc(C#N)cc(OCCN4CCOCC4)c3)c2)c2ccccc12 [Example 50, N-(5-(tert-Butyl)-3-(3-(4-((2-((3-cyano-5-(2-morpholinoethoxy)phenyl)amino)pyridin-4-yl)oxy)naphthalen-1-yl)ureido)-2-methoxybenzyl)acetamide] | 57.7 | 9.05 | 7.52 | 8.92 |  |  | 
 | 5.62 |  | 8.05 | COc1c(NC(=O)Nc2ccc(Oc3ccnc(NCc4ccccc4)n3)c3ccccc23)cc(C(C)(C)C)cc1P(C)(C)=O [38(g), 1-(4-((2-(Benzylamino)pyrimidin-4-yl)oxy)naphthalen-1-yl)-3-(5-(tert-butyl)-3-(dimethylphosphoryl)-2-methoxyphenyl)urea] | 28.8 | 7.65 | 5.79 | 8.48 | 4.5 | 24.5 | 38.0
7.36 | 6.00 | 6.60 |  | COc1cccc(Nc2cc(Oc3ccc(NC(=O)Nc4cc(C(C)(C)C)cc(CC(N)=O)c4OC)c(Cl)c3Cl)ccn2)c1 [38(af), 2-(5-(tert-Butyl)-3-(3-(2,3-dichloro-4-((2-((3-methoxyphenyl)amino)pyridin-4-yl)oxy)phenyl)ureido)-2-methoxyphenyl)acetamide] | 89.3 | 8.35 | 7.20 | 8.59 |  |  | 
 | 6.05 |  |  | COc1cc(Nc2cc(Oc3ccc(NC(=O)Nc4cc(C(C)(C)C)cc(CC(N)=O)c4OC)c4ccccc34)ccn2)cc(S(N)(=O)=O)c1 [38(ai), 2-(5-(tert-Butyl)-2-methoxy-3-(3-(4-((2-((3-methoxy-5-sulfamoylphenyl)amino)pyridin-4-yl)oxy)naphthalen-1-yl)ureido)phenyl)acetamide] | 67.6 | 7.95 | 7.04 | 8.80 |  |  | 
 | 6.08 |  |  | COc1cc(Nc2cc(Oc3ccc(NC(=O)Nc4cc(C(C)(C)C)cc(CNC(C)=O)c4OC)c4ccccc34)ccn2)cc(C(=O)NCCN2CCOCC2)c1 [38(t), 3-((4-((4-(3-(3-(Acetamidomethyl)-5-(tert-butyl)-2-methoxyphenyl)ureido)naphthalen-1-yl)oxy)pyridin-2-yl)amino)-5-methoxy-N-(2-morpholinoethyl)benzamide] | 77.3 | 8.13 | 6.54 | 9.15 |  |  | 
